In the assay the test system is Artemia salina. The conditions noted are these: in vivo, 24 h. The method, then: Alpha-Nemertides were prepared as described in Example 2, above, or by manual synthesis […] on 2-chlorotrityl resin as described in the Material and methods section below. […]. The brine shrimp assay is commonly used as toxicity assay, but is particularly suitable in the current work as a model system for crustaceans. In the first round of experiments Nemertides α-1, α-2, α-5, and α-6 were evaluated. […]. Artemia salina Assay of Alpha-Nemertides. 100 μl of sea water containing about 20-30 brine shrimps were added to each experimental well of a 96-well microplate. 100 μl of peptide solutions were then added to each well. As a control, some wells were filled with 100 μl of seawater containing shrimps and 100 μl milliQwater. The plates were covered and incubated in the dark at room temperature for 24 hours. After 24 hours, 10 second video clips of each well were filmed through a microscope. The shrimps were subsequently counted and categorized as either dead (not moving), affected (moving slowly, mostly at the bottom of the well) or normal (moving normally compared to the control at all levels of the well). The shrimps were then immobilized by addition of 100 μl of methanol. After 1 hour the total number of shrimps in each well was counted and the ratio (dead+affected)/total was calculated.

For 1 compound, IC50 results are on record in US20190256564A1, “NEMERTEA-DERIVED BIOACTIVE COMPOUNDS” (priority 2016, published 2019).

For orientation: IC50 means the midpoint of a concentration-inhibition curve. High values mean lower potency, low ones higher potency.

As for `CC[C@H](C)[C@@H]1NC(=O)[C@@H](NC(=O)CN)CSSC[C@@H]2NC(=O)[C@@H]3CSSC[C@@H](C(=O)N[C@@H](CC(N)=O)C(=O)N4C[C@H](O)C[C@H]4C(=O)N4C[C@H](O)C[C@H]4C(=O)N[C@@H](CC(N)=O)C(=O)N[C@@H](CCC(N)=O)C(=O)O)NC(=O)[C@H](Cc4c[nH]cn4)NC(=O)[C@H](Cc4ccccc4)NC(=O)[C@H](CC(N)=O)NC(=O)[C@H](Cc4c[nH]c5ccccc45)NC(=O)CNC(=O)[C@H](CSSC[C@H](NC(=O)[C@H](Cc4ccccc4)NC(=O)[C@H](CO)NC(=O)CNC(=O)[C@H]([C@@H](C)O)NC(=O)[C@H](C)NC1=O)C(=O)N[C@@H]([C@@H](C)O)C(=O)N[C@@H](CC(C)C)C(=O)N[C@@H](CO)C(=O)N[C@@H](CCCCN)C(=O)NCC(=O)N3)NC(=O)[C@H](CC(N)=O)NC(=O)[C@H](CCCCN)NC(=O)[C@H]([C@@H](C)O)NC2=O` [Nemertide α-5], the IC50 is under 1 µM.
